Like-named read-outs stand apart in the source and are kept apart here.
Assays:
NF-κB [1] = assay: EMSA of NF-κB DNA binding activity in nuclear extracts of LPS-stimulated THP-1 cells; type: cell-based, human; settings: 1 μM compound 24 h
Protocol: EMSA: For preparation of nuclear extracts, 10^7 cells were used at each experimental point. Following treatment of the THP-1 cells with either 1 μM of compound A for 24 h and stimulation with 1 μg/ml LPS at the indicated times, the cells were washed twice in PBS, and the cells were extracted for protein. The cells were resuspended in 500 μl buffer A (20 mM HEPES (pH 7.8), 0.1 mM EDTA, 10 mM KCL) with a protease inhibitor mixture (1 mM DTT, 0.5 mM Pefablock). Afterwards, the cells were incubated on ice for 15 min, then 30 μl 10% NP 40 was added and the cells were centrifuged at 5000×g. Each cell pellet was then resuspended in 50 μl buffer B (buffer A with 400 mM NaCl) and vortexed, followed by incubation for 15 min at 4° C. and centrifugation at 5000×g for 5 min at 4° C. The supernatant from each cell pellet was collected and the protein concentration quantified using the BCA-200 protein assay kit from Pierce (Rockford, Ill., USA). The nuclear extracts were stored at −80° C.
Double-stranded κB oligos (5′-AGTTGAGGGGACTTTCCCAGGC-3′ and the complement strand) were purchased from Promega. […] After electrophoresis at 4° C., the gel was dried, and the protein-DNA complexes were visualized and quantified on the STORM 860 Phospholmager using the ImageQuaNT software (available from Molecular Dynamics).

NF-κB [2] = assay: NF-κB-dependent luciferase assay in PC-3 cells, TNF-α stimulation; type: cell-based, human; settings: compound 24 h before TNF-α 50 ng/ml 6 h
Protocol: The NF-κB-luciferase reporter plasmid (pBIIX) and pRL-TK control vector described in Example 1 were used for the luciferase assay,
The PC-3 cells were seeded at a density of 3×10^4 cells/cm^2 in 6 well-plates. The following day, the cells were co-transfected with construct DNA and pRL-TK vector using DOTAP liposomal transfection reagent (Boehringer Mannheim). The construct DNA (4.0 μg per well), the pRL-TK vector (1.0 μg per well), DOTAP (16.7 μl per well) and dH2O (total volume 100 μl per well) were carefully mixed and incubated for 15 min at 37° C. A growth medium without serum (900 μl per well) was added and the transfection mixture (1 ml per well) was added to the cells. After 4 h at 37° C., a growth medium with 20% FBS (1 ml per well) was added. The cells were treated at 37° C. with compound A (10^−12−10^−5 M) or DMSO for 24 h before stimulation with TNF-α (50 ng/ml) for 6 h.
The cell lysate was assayed for luciferase activity using the Dual luciferase kit as described by the manufacturer (Promega). All transfections were performed in triplicate. Firefly luciferase activity was corrected for differences in transfection efficiency by normalizing it to the measured Renilla luciferase activity.
NF-κB activity was measured by the luciferase assay described in Example 1.

IKK = molecular target: T1, IKK (Homo sapiens, UniProt O14920); assay: In vitro kinase assay: IKK immunoprecipitated from LPS-stimulated THP-1 cells, GST-IκBα phosphorylation; type: biochemical; settings: 30 min pretreatment of LPS-activated IKK
T1 construct: IKK was immunoprecipitated with an IKKα/β antibody; endogenous in cells; host or cells: THP-1 cells stimulated with 1 μg/ml LPS; whole cell extract immunoprecipitated with an IKKα/β antibody (Santa Cruz)
T1 sequence (O14920 whole entry): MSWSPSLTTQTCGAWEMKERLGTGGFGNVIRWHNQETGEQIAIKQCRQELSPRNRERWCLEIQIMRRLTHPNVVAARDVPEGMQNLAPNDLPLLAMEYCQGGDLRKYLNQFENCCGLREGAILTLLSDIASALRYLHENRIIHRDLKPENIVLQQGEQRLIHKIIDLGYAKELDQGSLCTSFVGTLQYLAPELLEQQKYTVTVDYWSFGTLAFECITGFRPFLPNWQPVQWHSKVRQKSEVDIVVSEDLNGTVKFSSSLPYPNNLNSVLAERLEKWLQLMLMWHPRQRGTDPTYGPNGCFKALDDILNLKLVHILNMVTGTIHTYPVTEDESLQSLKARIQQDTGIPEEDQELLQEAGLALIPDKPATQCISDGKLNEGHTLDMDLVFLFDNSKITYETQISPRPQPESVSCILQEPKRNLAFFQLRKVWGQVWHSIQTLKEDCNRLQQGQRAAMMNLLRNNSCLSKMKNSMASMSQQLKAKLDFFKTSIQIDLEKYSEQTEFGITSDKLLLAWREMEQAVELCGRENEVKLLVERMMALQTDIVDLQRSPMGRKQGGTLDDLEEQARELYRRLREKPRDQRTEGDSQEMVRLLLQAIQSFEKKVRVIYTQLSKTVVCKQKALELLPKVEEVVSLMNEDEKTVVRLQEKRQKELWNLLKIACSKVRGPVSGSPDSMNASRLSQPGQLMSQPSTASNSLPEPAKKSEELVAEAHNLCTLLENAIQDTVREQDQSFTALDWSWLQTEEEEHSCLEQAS
T1 sequence (O15111 whole entry partner): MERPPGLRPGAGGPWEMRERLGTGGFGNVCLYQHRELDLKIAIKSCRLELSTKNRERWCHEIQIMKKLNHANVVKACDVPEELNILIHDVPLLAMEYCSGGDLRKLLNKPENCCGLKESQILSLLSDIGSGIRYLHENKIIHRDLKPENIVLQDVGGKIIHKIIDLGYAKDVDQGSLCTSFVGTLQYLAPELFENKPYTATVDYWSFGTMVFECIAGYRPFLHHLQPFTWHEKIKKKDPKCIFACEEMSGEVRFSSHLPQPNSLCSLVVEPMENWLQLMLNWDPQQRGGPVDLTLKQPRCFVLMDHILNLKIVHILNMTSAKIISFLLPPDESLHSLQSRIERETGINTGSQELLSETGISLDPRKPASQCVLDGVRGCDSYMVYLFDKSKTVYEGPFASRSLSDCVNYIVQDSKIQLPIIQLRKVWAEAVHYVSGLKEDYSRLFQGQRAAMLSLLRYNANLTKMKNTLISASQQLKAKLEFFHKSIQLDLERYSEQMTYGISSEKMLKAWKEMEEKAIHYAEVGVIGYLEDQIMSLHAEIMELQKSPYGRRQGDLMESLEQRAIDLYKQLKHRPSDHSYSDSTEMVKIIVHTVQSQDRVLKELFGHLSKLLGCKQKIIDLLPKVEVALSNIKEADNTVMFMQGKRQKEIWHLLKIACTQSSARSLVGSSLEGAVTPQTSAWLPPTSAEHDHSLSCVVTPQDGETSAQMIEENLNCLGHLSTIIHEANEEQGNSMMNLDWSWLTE
T1 sequence (Q9Y6K9 whole entry partner): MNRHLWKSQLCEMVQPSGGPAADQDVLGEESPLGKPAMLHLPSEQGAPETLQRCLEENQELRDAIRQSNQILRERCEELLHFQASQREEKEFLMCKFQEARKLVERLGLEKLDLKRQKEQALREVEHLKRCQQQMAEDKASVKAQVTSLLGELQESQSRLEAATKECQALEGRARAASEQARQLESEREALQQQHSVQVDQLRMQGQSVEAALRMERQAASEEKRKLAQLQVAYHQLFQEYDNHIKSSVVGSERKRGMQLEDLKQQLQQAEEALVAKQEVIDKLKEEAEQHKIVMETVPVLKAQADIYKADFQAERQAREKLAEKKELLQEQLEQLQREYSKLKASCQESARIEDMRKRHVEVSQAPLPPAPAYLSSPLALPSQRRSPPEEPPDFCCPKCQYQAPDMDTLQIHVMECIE
Protocol: In vitro kinase assay: THP-1 cells (1×10^7 cells) were stimulated with 1 μg/ml LPS for the indicated time periods and whole cell extracts were prepared as described above. IKK was immunoprecipitated with an IKKα/β antibody (raised against amino acid 470-755 of IKKβ of human origin but partially cross-reactive with IKKα as detected by Western Blotting (Santa Cruz Biotechnology Inc.). Compound A was diluted in kinase buffer (25 mM HEPES pH 7.5, 10 mM magnesium acetate, 50 μM ATP) at the appropriate concentrations. The compound was added to the beads for 30 min. at 30° C. The kinase reaction was started by adding 2.5 μg of the GST-IκBα substrate (Santa Cruz Biotechnology Inc.) together with 2 μCi γ-^32P-ATP (Amersham Pharmacia Biotech) per sample. The reaction was allowed to proceed for 30 min. at 30° C., and the IKK activity was measured by the amount of radioactive-labelled GST-IκBα bands, quantified by the STORM860 Phospho-Imager.
A general problem with the kinase assay is prestimulation of the kinase. To achieve a value for the zero-point, the LPS-activated IKK mixture was incubated with 20 μM myricetin (Sigma-Aldrich), which is a known IKKβ inhibitor (S. H. Tsal et al., J. Cell Biochem. 74, 1999, pp. 606-615). This value was subtracted from the all other values. All data are expressed as percentage of the activity of the LPS-activated IKKβ kinase treated with 0.1% DMSO.

N#CNC(=Nc1ccncc1)NCCCCCCOc1ccc(Cl)cc1 [compound A, N-(6-(4-chlorophenoxy)hexyl)-N′-cyano-N″-(4-pyridyl)guanidine]
NF-κB DNA-binding activity suppressed compared to the control (NF-κB [1]; after 0.5 to 4 h of LPS-stimulation): 2 fold
NF-κB DNA-binding activity suppressed compared to the control (NF-κB [1]; after 24 h of LPS-stimulation): 5 fold
NF-κB activity (IC50 nM) (NF-κB [2]): no inhibition
IC50 (IKK; four independent experiments, read-out: IKK activity IC50, range of values): 0.9 to 70 nM
IC50 (IKK; mean of four independent experiments, read-out: IKK activity, mean IC50 value): 8 nM

Reference: patent US6642215B2 (Leo Pharma A/S, priority 2001, dated 2003)
